According to patent publication US6562849B1, “Amine derivative compounds” (Sankyo Company, Limited, priority 1999, dated 2003):
Structures can show the parent of a compound that is named as a salt.

Tested on: KK mice (age 4-5 months) with diabetes
Test: Blood sugar lowering effect in KK mice with diabetes
Type: in vivo
Conditions: Mus musculus, po, 72 h, powder diet containing 0.01% of the test compound for 3 days, plasma glucose vs control group, groups of 4 mice, read-out: Blood sugar decrease rate (%)
From the text: [Test Example] Blood Sugar Lowering Effect
Blood samples were collected from the caudal vein of KK mice (age 4-5 months) with diabetes followed by measurement of their blood sugar levels. Next, after assigning the mice to groups (of 4 mice each) so that the mean blood sugar levels of each group were the same, mouse laboratory powder diet (F-1, Funabashi Farms), prepared so as to contain 0.01% of the test compound, was given to the mice for 3 days. The groups of mice that were given test compound were designated as the drug dose groups. It should be noted that a group that was given laboratory diet not containing the test compound was designated as the control group. Blood samples were collected from the caudal vein of the mice 3 days later and the glucose concentration of the plasma obtained by centrifugal separation was measured with a glucose analyzer (Glucoloader, A & T Corp.). The mean decrease of blood sugar rate (%) was determined according to the following equation.
Blood sugar decrease rate (%)=(mean blood sugar value of control group−mean blood sugar value […] of drug dose group)×100/(blood sugar value of control group)

Compound	inhibition in vivo at 0.01 % in diet
Cc1cc(Oc2ccc3nc(COc4ccc(CC5SC(=O)NC5=O)cc4)n(C)c3c2)cc(C)c1NC(=S)Nc1ccc(Cl)cc1 (centres unmarked) [Example 2, 1-(4-Chlorophenyl)-3-(4-[2-[4-(2,4-dioxothiazolidin-5-ylmethyl)phenoxymethyl]-1-methyl-1H-benzimidazol-6-yloxy]-2,6-dimethylphenyl)thiourea]	48.9%
Cc1cc(Oc2ccc3nc(COc4ccc(CC5SC(=O)NC5=O)cc4)n(C)c3c2)cc(C)c1NC(=O)Nc1ccc([N+](=O)[O-])cc1 (centres unmarked) [Example 3, 1-(4-[2-[4-(2,4-Dioxothiazolidin-5-ylmethyl)phenoxymethyl]-1-methyl-1H-benzimidazol-6-yloxy]-2,6-dimethylphenyl)-3-(4-nitrophenyl)urea]	49.9%
Cn1c(COc2ccc(CC3SC(=O)NC3=O)cc2)nc2ccc(Oc3ccc(NC(=O)Nc4ccccc4)cc3)cc21 (centres unmarked) [Example 4, 1-(4-[2-[4-(2,4-Dioxothiazolidin-5-ylmethyl)phenoxymethyl]-1-methyl-1H-benzimidazol-6-yloxy]phenyl)-3-phenylurea]	48.6%
Cn1c(COc2ccc(CC3SC(=O)NC3=O)cc2)nc2ccc(Oc3ccc(NC(=O)Nc4ccc(F)cc4F)cc3)cc21 (centres unmarked) [Example 5, 1-(2,4-Difluorophenyl)-3-(4-[2-[4-(2,4-dioxothiazolidin-5-ylmethyl)phenoxymethyl]-1-methyl-1H-benzimidazol-6-yloxy]phenyl)urea]	36.2%
Cn1c(COc2ccc(CC3SC(=O)NC3=O)cc2)nc2ccc(Oc3ccc(NC(=S)NC4CCCCC4)cc3)cc21 (centres unmarked) [Example 9, 1-(4-[2-[4-(2,4-Dioxothiazolidin-5-ylmethyl)phenoxymethyl]-1-methyl-1H-benzimidazol-6-yloxy]phenyl)-3-(cyclohexyl)thiourea]	47.1%
Cn1c(COc2ccc(CC3SC(=O)NC3=O)cc2)nc2ccc(Oc3ccc(NC(=S)NCc4ccccc4)cc3)cc21 (centres unmarked) [Example 11, 1-Benzyl-3-(4-[2-[4-(2,4-dioxothiazolidin-5-ylmethyl)phenoxymethyl]-1-methyl-1H-benzimidazol-6-yloxy]phenyl)thiourea]	32.9%
CCNC(=O)Nc1ccc(Oc2ccc3nc(COc4ccc(CC5SC(=O)NC5=O)cc4)n(C)c3c2)cc1 (centres unmarked) [Example 12, 1-(4-[2-[4-(2,4-Dioxothiazolidin-5-ylmethyl)phenoxymethyl]-1-methyl-1H-benzimidazol-6-yloxy]phenyl)-3-ethylurea]	56.1%
Cn1c(COc2ccc(CC3SC(=O)NC3=O)cc2)nc2ccc(Oc3ccc(NC(=O)NC45CC6CC(CC(C6)C4)C5)cc3)cc21 (centres unmarked) [Example 14, 1-(Adamant-1-yl)-3-(4-[2-[4-(2,4-dioxothiazolidin-5-ylmethyl)phenoxymethyl]-1-methyl-1H-benzimidazol-6-yloxy]phenyl)urea]	63.2%
CCCCCCN(C(=O)Nc1ccc(F)cc1)c1ccc(Oc2ccc3nc(COc4ccc(CC5SC(=O)NC5=O)cc4)n(C)c3c2)cc1 (centres unmarked) [Example 16, 1-(4-[2-[4-(2,4-Dioxothiazolidin-5-ylmethyl)phenoxymethyl]-1-methyl-1H-benzimidazol-6-yloxy]phenyl)-1-n-hexyl-3-(4-fluorophenyl)urea]	42.9%
Cn1c(COc2ccc(CC3SC(=O)NC3=O)cc2)nc2ccc(Oc3ccc(NS(C)(=O)=O)cc3)cc21 (centres unmarked) [Example 18, N-(4-[2-[4-(2,4-Dioxothiazolidin-5-ylmethyl)phenoxymethyl]-1-methyl-1H-benzimidazol-6-yloxy]phenyl)methanesulfonamide]	61%
Cn1c(COc2ccc(CC3SC(=O)NC3=O)cc2)nc2ccc(Oc3ccc(CCNC(=O)Nc4ccc(F)cc4F)cc3)cc21 (centres unmarked) [Example 31, 1-(2,4-Difluorophenyl)-3-[2-(4-[2-[4-(2,4-dioxothiazolidin-5-ylmethyl)phenoxymethyl]-1-methyl-1H-benzimidazol-6-yloxy]phenyl)ethyl]urea]	50.5%
Cn1c(COc2ccc(CC3SC(=O)NC3=O)cc2)nc2ccc(Oc3ccc(CCNC(=O)NC45CC6CC(CC(C6)C4)C5)cc3)cc21 (centres unmarked) [Example 33, 1-(Adamant-1-yl)-3-[2-(4-[2-[4-(2,4-dioxothiazolidin-5-ylmethyl)phenoxymethyl]-1-methyl-1H-benzimidazol-6-yloxy]phenyl)ethyl]urea dihydrochloride]	30.4%
Cn1c(COc2ccc(CC3SC(=O)NC3=O)cc2)nc2ccc(Oc3ccc(CCNC(=O)Nc4ccc(C(F)(F)F)cc4)cc3)cc21 (centres unmarked) [Example 34, 1-[2-(4-[2-[4-(2,4-Dioxothiazolidin-5-ylmethyl)phenoxymethyl]-1-methyl-1H-benzimidazol-6-yloxy]phenyl)ethyl]-3-[4-(trifluoromethyl)phenyl]urea hydrochloride]	32.8%
Cn1c(COc2ccc(CC3SC(=O)NC3=O)cc2)nc2ccc(OCCc3ccc(NC(=O)Nc4ccc(C(F)(F)F)cc4)cc3)cc21 (centres unmarked) [Example 37, 1-[4-(2-[2-[4-(2,4-Dioxothiazolidin-5-ylmethyl)phenoxymethyl]-1-methyl-1H-benzimidazol-6-yloxy]ethyl)phenyl]-3-[4-(trifluoromethyl)phenyl]urea]	35.2%
CC(C)c1cccc(C(C)C)c1NC(=O)Nc1cccc2ccc(Oc3ccc4nc(COc5ccc(CC6SC(=O)NC6=O)cc5)n(C)c4c3)cc12 (centres unmarked) [Example 40, 1-(2,6-Diisopropylphenyl)-3-[7-[2-[4-(2,4-dioxothiazolidin-5-ylmethyl)phenoxymethyl]-1-methyl-1H-benzimidazol-6yloxy]naphthalen-1-yl)urea]	59.3%
Cn1c(COc2ccc(CC3SC(=O)NC3=O)cc2)nc2ccc(Oc3ccc4cccc(NC(=S)NCc5ccccc5)c4c3)cc21 (centres unmarked) [Example 44, 1-Benzyl-3-(7-[2-[4-(2,4-dioxothiazolidin-5-ylmethyl)phenoxymethyl]-1-methyl-1H-benzimidazol-6-yloxy]naphthalen-1-yl)thiourea]	47.2%
Cn1c(COc2ccc(CC3SC(=O)NC3=O)cc2)nc2ccc(Oc3ccc4cccc(NC(=O)NCc5ccccc5)c4c3)cc21 (centres unmarked) [Example 45, 1-Benzyl-3-(7-[2-[4-(2,4-dioxothiazolidin-5-ylmethyl)phenoxymethyl]-1-methyl-1H-benzimidazol-6-yloxy]naphthalen-1-yl)urea]	54.1%
CC(=O)Nc1ccc(Oc2ccc3nc(COc4ccc(CC5SC(=O)NC5=O)cc4)n(C)c3c2)cc1 (centres unmarked) [Example 52, N-[4-[2-[4-(2,4-Dioxothiazolidin-5-ylmethyl)phenoxymethyl]-1-methyl-1H-benzimidazol-6-yloxy]phenyl]acetamide]	58.5%
Cn1c(COc2ccc(CC3SC(=O)NC3=O)cc2)nc2ccc(Oc3ccc(NC(=O)c4ccccc4)cc3)cc21 (centres unmarked) [Example 53, N-[4-[2-[4-(2,4-Dioxothiazolidin-5-ylmethyl)phenoxymethyl]-1-methyl-1H-benzimidazol-6-yloxy]phenyl]benzamide]	59.6%
Cn1c(COc2ccc(CC3SC(=O)NC3=O)cc2)nc2ccc(Oc3ccc(NC(=O)c4cccc(Cl)c4)cc3)cc21 (centres unmarked) [Example 54, 3-Chloro-N-[4-[2-[4-(2,4-dioxothiazolidin-5-ylmethyl)phenoxymethyl]-1-methyl-1H-benzimidazol-6-yloxy]phenyl]benzamide]	43.4%
Cn1c(COc2ccc(CC3SC(=O)NC3=O)cc2)nc2ccc(Oc3ccc(NC(=O)c4ccncc4)cc3)cc21 (centres unmarked) [Example 55, N-[4-[2-[4-(2,4-Dioxothiazolidin-5-ylmethyl)phenoxymethyl]-1-methyl-1H-benzimidazol-6-yloxy]phenyl]isonicotinamide]	53.8%
Cn1c(COc2ccc(CC3SC(=O)NC3=O)cc2)nc2ccc(Oc3ccc(NC(=O)c4cccnc4)cc3)cc21 (centres unmarked) [Example 56, N-[4-[2-[4-(2,4-Dioxothiazolidin-5-ylmethyl)phenoxymethyl]-1-methyl-1H-benzimidazol-6-yloxy]phenyl]nicotinamide]	63.6%
Cn1c(COc2ccc(CC3SC(=O)NC3=O)cc2)nc2ccc(Oc3ccc(NC(=O)c4ccc(F)cc4F)cc3)cc21 (centres unmarked) [Example 57, 2,4-Difluoro-N-[4-[2-[4-(2,4-dioxothiazolidin-5-ylmethyl)phenoxymethyl]-1-methyl-1H-benzimidazol-6-yloxy]phenyl]benzamide]	57.3%
Cn1c(COc2ccc(CC3SC(=O)NC3=O)cc2)nc2ccc(Oc3ccc(NC(=O)C4CCCC4)cc3)cc21 (centres unmarked) [Example 59, N-[4-[2-[4(2,4-dioxothiazolidin-5-ylmethyl)phenoxymethyl]-1-methyl-1H-benzimidazol-6-yloxy]phenyl]cyclopentanecarboxamide]	56.8%
Cn1c(COc2ccc(CC3SC(=O)NC3=O)cc2)nc2ccc(Oc3ccc(NC(=O)c4ccc5ccccc5c4)cc3)cc21 (centres unmarked) [Example 60, N-[4-[2-[4-(2,4-Dioxothiazolidin-5-ylmethyl)phenoxymethyl]-1-methyl-1H-benzimidazol-6-yloxy]phenyl]naphthalene-2-carboxamide]	49.8%
CCCCCCN(C(C)=O)c1ccc(Oc2ccc3nc(COc4ccc(CC5SC(=O)NC5=O)cc4)n(C)c3c2)cc1 (centres unmarked) [Example 61, N-[4-[2-[4-(2,4-Dioxothiazolidin-5-ylmethyl)phenoxymethyl]-1-methyl-1H-benzimidazol-6-yloxy]phenyl]-N-n-hexylacetamide hydrochloride]	54.2%
